In one experiment the test system is Escherichia coli. The experiment in a line: microbe, parasite or virus in culture. As to conditions: ATCC 25922, 18 h, ASSAY_TEST Inhibition of Bacterial Growth, detection method Absorption (OD600), MEDIA CAMHB, plate type 384well, NBS, CORNING #3640.
The next experiment relates to Staphylococcus aureus. The experiment in a line: microbe, parasite or virus in culture. Conditions: ATCC 43300, 18 h, ASSAY_TEST Inhibition of Bacterial Growth, detection method Absorption (OD600), MEDIA CAMHB, plate type 384well, NBS, CORNING #3640.
For experiment [1], the system named is Pseudomonas aeruginosa. The experiment in a line: Antibacterial activity against Pseudomonas aeruginosa PAO397 [PAO1 d(mexAB-oprM) d(mexCD-oprJ) d(mexEF-oprN) d(mexJKL) d(mexXY) d(opmH)] (CO-ADD:GN_211); MIC in CAMBH media using NBS plates, by OD(600). As to conditions: ASSAY_TEST Inhibition of Bacterial Growth, detection method Absorption (OD600), MEDIA CAMHB, plate type 384well, CORNING #3640, time 18 hr. The format is functional.

For the next experiment, the system named is HEK293. Description: cells. It is filed as functional, Homo sapiens, ATCC CRL1573. As to conditions: Homo sapiens, ATCC CRL1573, HEK293; ASSAY_TEST Inhibition of Cell Viability; detection method Resazurin; Fluorescence (ex560/em590); MEDIA DMEM with 10% FBS; plate type 384well; TC; CORNING #3712; time 18 hr; read-out: CC50.
The subject of the next experiment is Klebsiella pneumoniae. The experiment in a line: microbe, parasite or virus in culture. As to conditions: ATCC 700603, 18 h, ASSAY_TEST Inhibition of Bacterial Growth, detection method Absorption (OD600), MEDIA CAMHB, plate type 384well, NBS, CORNING #3640.
Experiment [2] concerns Pseudomonas aeruginosa. Description: microbe, parasite or virus in culture. Conditions: ATCC 27853, 18 h, ASSAY_TEST Inhibition of Bacterial Growth, detection method Absorption (OD600), MEDIA CAMHB, plate type 384well, NBS, CORNING #3640.
Description: Antibacterial activity against Pseudomonas aeruginosa ATCC 27853 (CO-ADD:GN_042); MIC in CAMBH media using NBS plates, by OD(600)
For a further experiment, the system named is Acinetobacter baumannii. The experiment in a line: microbe, parasite or virus in culture. As to conditions: ATCC 19606, 18 h, ASSAY_TEST Inhibition of Bacterial Growth, detection method Absorption (OD600), MEDIA CAMHB, plate type 384well, NBS, CORNING #3640.
Another experiment has as its system Candida albicans. The experiment in a line: microbe, parasite or virus in culture. As to conditions: ATCC 90028, ASSAY_TEST Inhibition of Fungal Growth, detection method Absorption (OD530), plate type 384well, NBS, CORNING #3640.

For 20 compounds, MIC and CC50 results are on record in ChEMBL document CHEMBL4513161, “CO-ADD screening of MMV (CH) - Pandemic Response Box” (2021).

Each structure is given as a SMILES string. In brackets after ≈: the same amount, converted by molar mass.

Description for Acinetobacter baumannii: Antibacterial activity against Acinetobacter baumannii ATCC 19606 (CO-ADD:GN_034); MIC in CAMBH media using NBS plates, by OD600
Description for Candida albicans: Antifungal activity against Candida albicans ATCC 90028 (CO-ADD:FG_001); MIC in YNB media using NBS plates, by OD630
Description for Cryptococcus neoformans: Antifungal activity against Cryptococcus neoformans H99 ATCC 208821 (CO-ADD:FG_002); MIC in YNB media using NBS plates, by Resazurin OD(600-570)
Description for Escherichia coli: Antibacterial activity against Escherichia coli ATCC 25922 (CO-ADD:GN_001); MIC in CAMBH media using NBS plates, by OD(600)
Description for Klebsiella pneumoniae: Antibacterial activity against Klebsiella pneumoniae MDR ATCC 70063 (CO-ADD:GN_003); MIC in CAMBH media using NBS plates, by OD(600)
Description for Staphylococcus aureus: Antibacterial activity against Staphylococcus aureus MRSA ATCC 43300 (CO-ADD:GP_020); MIC in CAMBH media, using NBS plates, by OD(600)

For the compound `NC(=O)[C@@H]1CC[C@@H]2CN1C(=O)N2OS(=O)(=O)O`, the MIC with Escherichia coli, in the experiment with Staphylococcus aureus, with Pseudomonas aeruginosa [1], in the experiment with Cryptococcus neoformans, with Klebsiella pneumoniae and in the experiment with Pseudomonas aeruginosa [2] was over 20 µM in each case. In addition, the MIC in the experiment on Acinetobacter baumannii and against Candida albicans was over 20 µM each time. In addition, the CC50 (commonly the concentration at which the toxic effect on the cells reaches its halfway point) with HEK293 is over 20 µM.
Consider `CS(=O)(=O)c1ccc(Oc2ccc(Cl)cc2)cc1`, for which the MIC against Escherichia coli, against Staphylococcus aureus, in the experiment with Pseudomonas aeruginosa [1], against Cryptococcus neoformans, with Klebsiella pneumoniae and in the experiment with Pseudomonas aeruginosa [2] was over 20 µM each time. For the same compound, the MIC in the experiment with Acinetobacter baumannii and against Candida albicans was over 20 µM in each case. For the same compound, the CC50 with HEK293 is over 20 µM.
For `C/C(=N\NC(=O)C1CC1c1ccccc1)c1ccc(NC(=O)c2ccco2)cc1` (stereo not given), the MIC against Escherichia coli, in the experiment on Staphylococcus aureus, against Pseudomonas aeruginosa [1], against Cryptococcus neoformans, with Klebsiella pneumoniae and in the experiment on Pseudomonas aeruginosa [2] was over 20 µM in each case. For the same compound, the MIC in the experiment on Acinetobacter baumannii and with Candida albicans was over 20 µM throughout. In addition, the CC50 in the experiment on HEK293 is over 20 µM.
With `O=C(c1ccc(F)cc1)N1CCN2C(=O)c3ccccc3C12c1ccccc1` (stereo not given), the MIC against Escherichia coli, against Staphylococcus aureus, against Pseudomonas aeruginosa [1], against Cryptococcus neoformans, against Klebsiella pneumoniae and in the experiment on Pseudomonas aeruginosa [2] was over 20 µM throughout. In addition, the MIC in the experiment with Acinetobacter baumannii and in the experiment on Candida albicans was over 20 µM in each case. In the experiment with HEK293, the CC50 is over 20 µM.
On to `OC1O[C@H](CSc2ccc(F)cc2)[C@@H](O)[C@H]1O` (stereo not given in full), for which the MIC in the experiment on Escherichia coli, against Staphylococcus aureus, against Pseudomonas aeruginosa [1], with Cryptococcus neoformans, against Klebsiella pneumoniae and in the experiment on Pseudomonas aeruginosa [2] was over 20 µM in each case. For the same compound, the MIC against Acinetobacter baumannii and against Candida albicans was over 20 µM each time. Moreover, the CC50 with HEK293 is over 20 µM.
Consider `CCOC(=O)/C=C/[C@H](C[C@@H]1CCNC1=O)NC(=O)[C@H](CC)n1cccc(NC(=O)c2cc(C)on2)c1=O`, for which the MIC in the experiment with Escherichia coli, against Staphylococcus aureus, against Pseudomonas aeruginosa [1], in the experiment on Cryptococcus neoformans, against Klebsiella pneumoniae and with Pseudomonas aeruginosa [2] was over 20 µM in each case. Further, the MIC against Acinetobacter baumannii and with Candida albicans was over 20 µM throughout. Further, the CC50 in the experiment with HEK293 was over 20 µM.
With `CN1CCN(Cc2ccc(-c3cnc4[nH]cc(-c5ccc6[nH]ccc6c5)c4c3)cc2)CC1`, the MIC against Escherichia coli, against Staphylococcus aureus, in the experiment on Pseudomonas aeruginosa [1], in the experiment on Cryptococcus neoformans, in the experiment on Klebsiella pneumoniae and in the experiment with Pseudomonas aeruginosa [2] was over 20 µM each time. Also, the MIC against Acinetobacter baumannii and against Candida albicans was over 20 µM in each case. The CC50 in the experiment with HEK293 worked out at 5.33 µM.
Consider `C[C@H]1CC[C@]2(NC1)O[C@H]1C[C@H]3[C@@H]4CC[C@H]5C[C@@H](O)CC[C@]5(C)[C@H]4CC[C@]3(C)[C@H]1[C@@H]2C`, for which the MIC with Escherichia coli, with Staphylococcus aureus, in the experiment on Pseudomonas aeruginosa [1], with Cryptococcus neoformans, against Klebsiella pneumoniae and with Pseudomonas aeruginosa [2] was over 20 µM in each case. For the same compound, the MIC in the experiment on Acinetobacter baumannii is over 20 µM; with Candida albicans, 20 µM (≈ 8.31 µg/mL). For the same compound, in the experiment with HEK293, the half-maximal cytotoxic concentration (CC50) was over 20 µM.
As for `O=c1cc(OCc2ccccc2)ccn1Cc1ccccc1`, the MIC against Escherichia coli, with Staphylococcus aureus, against Pseudomonas aeruginosa [1], with Cryptococcus neoformans, in the experiment with Klebsiella pneumoniae and in the experiment with Pseudomonas aeruginosa [2] was over 20 µM each time. Besides, the MIC in the experiment with Acinetobacter baumannii and against Candida albicans was over 20 µM each time. Also, the CC50 in the experiment with HEK293 was over 20 µM.
For `CC(C)(C)OC(=O)NCc1ccc(C(=O)N[C@H]2CCOC2=O)cc1`, the MIC in the experiment on Escherichia coli, against Staphylococcus aureus, with Pseudomonas aeruginosa [1], in the experiment with Cryptococcus neoformans, against Klebsiella pneumoniae and with Pseudomonas aeruginosa [2] was over 20 µM in each case. Further, the MIC with Acinetobacter baumannii and with Candida albicans was over 20 µM throughout. The cytotoxic concentration (CC50) with HEK293 is over 20 µM.
In the case of `C[C@H](NC(=O)C(=O)Nc1ccccc1C(C)(C)C)C(=O)N[C@@H](CC(=O)O)C(=O)COc1c(F)c(F)cc(F)c1F`, the MIC against Escherichia coli, against Staphylococcus aureus, in the experiment with Pseudomonas aeruginosa [1], in the experiment with Cryptococcus neoformans, against Klebsiella pneumoniae and in the experiment with Pseudomonas aeruginosa [2] was over 20 µM each time. Further, the MIC with Acinetobacter baumannii and in the experiment with Candida albicans was over 20 µM in each case. Also, in the experiment with HEK293, the CC50 is over 20 µM.
Consider `CN(C)CCCOc1ccc(-c2ccc3ncc4c(c3c2)n(C2CCOCC2)c(=O)n4C)cn1`, for which the MIC against Escherichia coli, against Staphylococcus aureus, with Pseudomonas aeruginosa [1], against Cryptococcus neoformans, against Klebsiella pneumoniae and with Pseudomonas aeruginosa [2] was over 20 µM in each case. Further, the MIC against Acinetobacter baumannii and in the experiment on Candida albicans was over 20 µM each time. Moreover, the CC50 with HEK293 was over 20 µM.
On to `COc1cc(NC(=O)CN2C(=O)NC(c3ccccc3)(c3ccccc3)C2=O)cc(OC)c1`, for which the MIC in the experiment on Escherichia coli, with Staphylococcus aureus, in the experiment on Pseudomonas aeruginosa [1], in the experiment with Cryptococcus neoformans, against Klebsiella pneumoniae and in the experiment with Pseudomonas aeruginosa [2] was over 20 µM in each case. The MIC against Acinetobacter baumannii and against Candida albicans was over 20 µM in each case. For the same compound, the CC50 in the experiment on HEK293 is over 20 µM.
Turning to `Nc1nc(F)nc2c1ncn2[C@H]1O[C@@H](CO)[C@H](O)[C@@H]1O`, the MIC against Escherichia coli, against Staphylococcus aureus, against Pseudomonas aeruginosa [1], in the experiment on Cryptococcus neoformans, against Klebsiella pneumoniae and against Pseudomonas aeruginosa [2] was over 20 µM throughout. For the same compound, the MIC in the experiment with Acinetobacter baumannii and against Candida albicans was over 20 µM in each case. The half-maximal cytotoxic concentration (CC50) in the experiment with HEK293 amounted to 0.535 µM.
Regarding `OB1OCc2c1ccc(Cl)c2F`, the MIC in the experiment with Escherichia coli is over 20 µM; in the experiment on Staphylococcus aureus, over 20 µM; with Pseudomonas aeruginosa [1], over 20 µM; against Cryptococcus neoformans it was 20 µM (≈ 3.73 µg/mL); against Klebsiella pneumoniae, over 20 µM; in the experiment with Pseudomonas aeruginosa [2], over 20 µM. Also, the MIC against Acinetobacter baumannii was over 20 µM; against Candida albicans, 10 µM (≈ 1.86 µg/mL). The CC50 with HEK293 was over 20 µM.
In the case of `CCC(C)(C)c1ccc(CC(C)CN2C[C@@H](C)O[C@@H](C)C2)cc1` (stereo not given in full), the MIC in the experiment on Escherichia coli, in the experiment with Staphylococcus aureus, in the experiment with Pseudomonas aeruginosa [1], with Cryptococcus neoformans, in the experiment on Klebsiella pneumoniae and against Pseudomonas aeruginosa [2] was over 20 µM throughout. The values for the MIC with Acinetobacter baumannii and against Candida albicans were over 20 µM and 2.5 µM (≈ 0.794 µg/mL), respectively. In addition, in the experiment with HEK293, the CC50 was over 20 µM.
With `COC(=O)Nc1nc2ccccc2[nH]1` [CARBENDAZIM], the MIC in the experiment on Escherichia coli, against Staphylococcus aureus, in the experiment with Pseudomonas aeruginosa [1], with Cryptococcus neoformans, in the experiment with Klebsiella pneumoniae and against Pseudomonas aeruginosa [2] was over 20 µM throughout. In addition, the MIC in the experiment on Acinetobacter baumannii and in the experiment on Candida albicans was over 20 µM throughout. Also, the CC50 with HEK293 worked out at 15.5 µM.
For the compound `Clc1ccc(Cn2c(CN3CCCC3)nc3ccccc32)cc1` [CLEMIZOLE], the MIC with Escherichia coli, against Staphylococcus aureus, against Pseudomonas aeruginosa [1], against Cryptococcus neoformans, in the experiment with Klebsiella pneumoniae and against Pseudomonas aeruginosa [2] was over 20 µM throughout. Moreover, the MIC against Acinetobacter baumannii and in the experiment on Candida albicans was over 20 µM throughout. For the same compound, in the experiment with HEK293, the CC50 was over 20 µM.
For the compound `Nc1nc2c(ncn2COCCO)c(=O)[nH]1` [ACYCLOVIR], the MIC in the experiment on Escherichia coli, in the experiment with Staphylococcus aureus, against Pseudomonas aeruginosa [1], with Cryptococcus neoformans, against Klebsiella pneumoniae and against Pseudomonas aeruginosa [2] was over 20 µM each time. The MIC against Acinetobacter baumannii and in the experiment with Candida albicans was over 20 µM each time. Moreover, the CC50 in the experiment on HEK293 is over 20 µM.
`CCOC(=O)/C=C/[C@H](C[C@@H]1CCNC1=O)NC(=O)[C@@H](CC(=O)[C@@H](NC(=O)c1cc(C)on1)C(C)C)Cc1ccc(F)cc1`: the MIC with Escherichia coli, against Staphylococcus aureus, in the experiment with Pseudomonas aeruginosa [1], against Cryptococcus neoformans, in the experiment with Klebsiella pneumoniae and against Pseudomonas aeruginosa [2] was over 20 µM throughout. Also, the MIC against Acinetobacter baumannii and against Candida albicans was over 20 µM each time. In addition, in the experiment on HEK293, the CC50 is over 20 µM.
